In patent publication US20240018501A1, “HIGHER PERFORMANCE PROTEASES FOR SCARLESS PEPTIDE TAG REMOVAL” (priority 2017, published 2024):
Ends that are not written are not given here.

Legend:
[1] = tested on: MBP-ElxP; assay: MBP-ElxP activity assay by MALDI-TOF MS; assay type: biochemical, Staphylococcus epidermidis; details: non-cognate NisA and NisA mutants
Method: A typical activity assay consisted of 50 mM Tris HCl pH 8.0, 50 μM peptide, 5 μM MBP-ElxP in a final volume of 100 μL. The sample was incubated for 2 h at room temperature. To monitor cleavage activity, samples were desalted using a zip tip concentrator (Millipore), mixed in a 1:1 ratio with sinapinic acid, and spotted on a MALDI-TOF Bruker plate. Ion intensities for the resulting precursor peptide, leader peptide and core peptide were normalized and the proteolytic efficiency was measure as the amount of substrate left after cleavage reaction (Table 1). Reactions were performed with tagged enzyme and substrates unless otherwise noticed.

[2] = tested on: CylA; assay: CylA proteolytic cleavage of leader peptides (MALDI-TOF MS); assay type: biochemical, Enterococcus faecalis
Method: Targeted peptides were dissolved in H2O to a final concentration of 3 mg/mL. To a 85 μL solution of peptides, 10 μL of 500 mM HEPES buffer (pH 7.5) was added followed by 5 μL of 0.5 mg/mL AspN protease (for modified CylLL and CylLS peptides), 0.1 mg/mL CylA protease (for modified and unmodified CylLL, CylLS peptides, and modified HalA2-GDVQAE peptide) or 0.1 mg/mL LicP protease (for LicA2). For cleavage tests of the engineered GDVQAE peptides, CylA was added to a final concentration of 0.01 mg/mL, whereas the peptide was added to a concentration of 0.3 mg/mL with 50 mM HEPES buffer (pH 7.5). The protease cleavage reaction mixtures were kept at 25° C. for 1 to 48 h. Osmotic pressure was adjusted with NaCl solution with a final concentration of 150 mM. The digested peptide mixture was directly used for antimicrobial and hemolytic assay. For the kinetic analysis of CylA and its mutant proteins, His6-CylA-27-412 and His6-CylA-27-412-E95A proteins were added to a final concentration of 500 ng/mL and 2.5 μg/mL (22 nM and 110 nM), respectively, with modified CylLS supplied at a concentration of 0.3 mg/mL (36 μM). The reactions were allowed to proceed at room temperature and were stopped by 1% TFA at different time points for LC/MS analysis. Halα and Halβ were obtained by factor Xa cleavage of modified HalA1Xa and HalA2 Xa peptides using the procedure of Y. Shi, et al. J. Am. Chem. Soc. […]

Substance | cleavage by ElxP [1] | leader peptide removal / cleavage by CylA [2]
wild type NisA: non-cognate lanthipeptide precursor peptide of nisin, His6-tagged (MSTKDFNLDLVSVSKKDSGASPRITSISLCTPGCKTGALMGCNMKTATCHCSIHVSK; cysteine pairing not given here; also: His6-tagged, tag position not given here) | does not cleave | –
His6-NisA-GDVQAE: linear NisA with engineered GDVQAE recognition sequence | – | successfully removed
